The compounds below were run on HBV (assay: HBV-DNA Antiviral Assay Using HepG2.117 Cells (intracellular HBV DNA by qPCR)). Conditions: Hepatitis B virus, HepG2.117.
Format: cell-based, hepatitis B virus (genotype D)
In short: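 HepG2.117 cells (genotype D HBV, Tet-off) were induced by doxycycline withdrawal and treated for 3 days with 9 concentrations in 4-fold dilution, 2% DMSO final. Intracellular HBV DNA was measured by qPCR against a standard curve, with ATPlite viability read in parallel. EC50, EC90 and CC50 came from fits against the DMSO control.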
With `O=C(c1ccc(Br)c(Cl)c1)N1CCn2c(c3n(c2=O)C[C@@H](O)CN(Cc2ccccc2)C3=O)C1` (stereo in doubt) [Example 175, rac-(11S)-13-benzyl-4-(4-bromo-3-chloro-benzoyl)-11-hydroxy-4,7,9,13-tetrazatricyclo[7.5.0.0^2,7]tetradec-1-ene-8.14-dione] the EC50 was 500 to 5000 nM.
In the case of `O=C(NCCc1ccccc1)c1c2n(c(=O)n1-c1ccccc1)CCN(C(=O)c1ccc(Br)c(Cl)c1)C2` [Example 28, 7-(4-bromo-3-chloro-benzoyl)-3-oxo-2-phenyl-N-(2-phenylethyl)-6,8-dihydro-5H-imidazo[1,5-a]pyrazine-1-carboxamide], the EC50 is reported as 500 to 5000 nM.
With `CC(C)Oc1ccc(-n2c(C(=O)NCc3ccccc3)c3n(c2=O)CCN(C(=O)/C=C/c2ccccc2Cl)C3)cc1` [Example 216, N-benzyl-7-[(E)-3-(2-chloropehnyl)prop-2-enoyl]-2-(4-isopropoxyphenyl)-3-oxo-6,8-dihydro-5H-imidazo[1,5-a]pyrazine-1-carboxamide] the EC50 was over 5000 nM.
With `O=C(NCc1ccccc1)c1c2n(c(=O)n1-c1ncccn1)CCN(C(=O)c1ccc(Cl)c(Cl)c1)C2` [Example 138, N-benzyl-7-(3,4-dichlorobenzoyl)-3-oxo-2-pyrimidin-2-yl-6,8-dihydro-5H-imidazo[1,5-a]pyrazine-1-carboxamide] the EC50 was over 5000 nM.
With `O=C(NCc1ccccc1)c1c2n(c(=O)n1-c1ccc(OC3CC3)cc1)CCN(C(=O)c1cc(Cl)c(Br)cc1F)C2` [Example 446, N-benzyl-7-(4-bromo-5-chloro-2-fluoro-benzoyl)-2-[4-(cyclopropoxy)phenyl]-3-oxo-6,8-dihydro-5H-imidazo[1,5-a]pyrazine-1-carboxamide] the EC50 was over 5000 nM.
Compound `C[C@@H](c1ccccc1)N1C[C@H](O)Cn2c(c3n(c2=O)CCN(C(=O)c2ccc(Br)c(Cl)c2)C3)C1=O` (stereo in doubt) [Example 238, (11SR)-4-(4-bromo-3-chloro-benzoyl)-11-hydroxy-13-[(1S)-1-phenylethyl]-4,7,9,13-tetrazatricyclo[7.5.0.0^2,7]tetradec-1-ene-8,14-dione] has an EC50 of 100 to 500 nM.
`COc1ccc(-n2c(C(=O)NCc3ccccc3)c3n(c2=O)CCN(C(=O)c2cc4c(Cl)cccc4[nH]2)C3)cc1` [Example 56, N-benzyl-7-(4-chloro-1H-indole-2-carbonyl)-2-(4-methoxyphenyl)-3-oxo-6,8-dihydro-H-imidazo[1,5-a]pyrazine-1-carboxamide] gave an EC50 of 100 to 500 nM.
For `C[C@@H](NC(=O)c1c2n(c(=O)n1-c1ccc(OC3CC3)cc1)CCN(C(=O)c1ccc(Br)c(Cl)c1)C2)c1ccc(OCC(N)=O)cc1F` (stereo in doubt) [Example 316, 7-(4-bromo-3-chloro-benzoyl)-2-[4-(cyclopropoxy)phenyl]-3-oxo-N-[rac-(1S)-1-[4-(2-amino-2-oxo-ethoxy)-2-fluoro-phenyl]ethyl]-6,8-dihydro-5H-imidazo[1,5-a]pyrazine-1-carboxamide], the EC50 was under 100 nM.
With `O=C(c1ccc(Br)c(Cl)c1)N1CCn2c(c3n(c2=O)C[C@@H](CO)CN(Cc2ccccc2)C3=O)C1` (stereo in doubt) [Example 147, rac-(11S)-13-benzyl-4-(4-bromo-3-chloro-benzoyl)-11-(hydroxymethyl)-4,7,9,13-tetrazatricyclo[7.5.0.0^2,7]tetradec-1-ene-8,14-dione] the EC50 was 100 to 500 nM.
With `C[C@H](NC(=O)c1c2n(c(=O)n1-c1ccc(OCC(F)(F)F)cc1)CCN(C(=O)c1ccc(Br)c(Cl)c1)C2)c1ccc(OC(C)(C)C(N)=O)cc1F` (stereo in doubt) [Example 336, 7-(4-bromo-3-chloro-benzoyl)-3-oxo-N-[rac-(1S)-1-[4-(2-amino-1,1-dimethyl-2-oxo-ethoxy)-2-fluoro-phenyl]ethyl]-2-[4-(2,2,2-trifluoroethoxy)phenyl]-6,8-dihydro-5H-imidazo[1,5-a]pyrazine-1-carboxamide] the EC50 was 100 to 500 nM.
`COc1ccc(-n2c(-c3ccccc3)c3n(c2=O)CCN(C(=O)c2ccc(Cl)c(Cl)c2)C3)cc1` [Example 74, 7-(3,4-dichlorobenzoyl)-2-(4-methoxyphenyl)-1-phenyl-6,8-dihydro-5H-imidazo[1,5-a]pyrazin-3-one] showed an EC50 of over 5000 nM.
Work on `O=C(NCc1ccccc1)c1c2n(c(=O)n1-c1ccc(-n3ccnc3)cc1)CCN(C(=O)c1ccc(Br)c(Cl)c1)C2` [Example 312, N-benzyl-7-(4-bromo-3-chloro-benzoyl)-2-(4-imidazol-1-ylphenyl)-3-oxo-6,8-dihydro-5H-imidazo[1,5-a]pyrazine-1-carboxamide] yielded an EC50 of 500 to 5000 nM.
`C[C@H]1Cn2c(c(C(=O)NCc3ccccc3-c3ncccn3)n(-c3ccc(OC4CC4)cc3)c2=O)CN1C(=O)c1ccc(Br)c(C#N)c1` (racemic) [Example 452, rac-(6S)-7-(4-bromo-3-cyano-benzoyl)-2-[4-(cyclopropoxy)phenyl]-6-methyl-3-oxo-N-[(2-pyrimidin-2-ylphenyl)methyl]-6,8-dihydro-5H-imidazo[1,5-a]pyrazine-1-carboxamide] was tested, and the EC50 was under 100 nM.
In the case of `COc1ccc(-n2c(C(=O)NCc3ccccc3)c3n(c2=O)CCN(C(=O)c2ccc(Cl)c(Cl)c2)C3)c(C#N)c1` [Example 80, N-benzyl-2-(2-cyano-4-methoxy-phenyl)-7-(3,4-dichlorobenzoyl)-3-oxo-6,8-dihydro-5H-imidazo[1,5-a]pyrazine-1-carboxamide], the EC50 is reported as over 5000 nM.
Work on `N#Cc1cc(C(=O)N2CCn3c(c(C(=O)NCc4ccccc4-c4ncccn4)n(-c4ccc(OC5CC5)cc4)c3=O)C2)ccc1Br` [Example 432, 7-(4-bromo-3-cyano-benzoyl)-2-[4-(cyclopropoxy)phenyl]-3-oxo-N-[(2-pyrimidin-2-ylphenyl)methyl]-6,8-dihydro-5H-imidazo[1,5-a]pyrazine-1-carboxamide] yielded an EC50 of 100 to 500 nM.
For `COc1ccc(-n2c(C(=O)NCc3ccc(OCC(=O)O)cc3)c3n(c2=O)CCN(C(=O)c2ccc(Br)c(Cl)c2)C3)cc1` [Example 204, 2-[4-[[[7-(4-bromo-3-chloro-benzoyl)-2-(4-methoxyphenyl)-3-oxo-6,8-dihydro-5H-imidazo[1,5-a]pyrazine-1-carbonyl]amino]methyl]phenoxy]acetic acid], the EC50 was over 5000 nM.
Compound `COc1ccc(-n2c(C(=O)N[C@H](c3ccccc3)C(F)(F)F)c3n(c2=O)CCN(C(=O)c2ccc(Br)c(Cl)c2)C3)cc1` (stereo in doubt) [Example 208, 7-(4-bromo-3-chloro-benzoyl)-2-(4-methoxyphenyl)-3-oxo-N-[rac-(1R)-2,2,2-trifluoro-1-phenyl-ethyl]-6,8-dihydro-5H-imidazo[1,5-a]pyrazine-1-carboxamide] has an EC50 of 100 to 500 nM.
Compound `CC(NC(=O)c1c2n(c(=O)n1-c1ccc(OC3CC3)cc1)CCN(C(=O)c1ccc(Br)c(Cl)c1)C2)c1ccc(OC(F)F)cc1F` (racemic) [Example 314, 7-(4-bromo-3-chloro-benzoyl)-2-[4-(cyclopropoxy)phenyl]-3-oxo-N-[rac-(1S)-1-[4-(difluoromethoxy)-2-fluoro-phenyl]ethyl]-6,8-dihydro-5H-imidazo[1,5-a]pyrazine-1-carboxamide] has an EC50 of 100 to 500 nM.
Work on `CN(Cc1ccccc1)C(=O)c1c2n(c(=O)n1-c1ccccc1)CCN(C(=O)c1ccc(Br)c(Cl)c1)C2` [Example 27, N-benzyl-7-(4-bromo-3-chloro-benzoyl)-N-methyl-3-oxo-2-phenyl-6,8-dihydro-5H-imidazo[1,5-a]pyrazine-1-carboxamide] yielded an EC50 of 500 to 5000 nM.
In the case of `CC(C)Oc1ccc(-n2c(C(=O)N[C@@H](C)c3ccc(C#N)cc3)c3n(c2=O)CCN(C(=O)c2ccc(Br)c(Cl)c2)C3)cc1` (stereo in doubt) [Example 234, 7-(4-bromo-3-chloro-benzoyl)-2-(4-isopropoxyphenyl)-3-oxo-N-[rac-(1S)-1-(4-cyanophenyl)ethyl]-6,8-dihydro-5H-imidazo[1,5-a]pyrazine-1-carboxamide], the EC50 is reported as 100 to 500 nM.
In the case of `COc1ccc(-n2c(C(=O)NCc3ccc(OC)c(C)c3)c3n(c2=O)CCN(C(=O)c2ccc(Cl)c(Cl)c2)C3)cc1` [Example 89, 7-(3,4-dichlorobenzoyl)-N-[(4-methoxy-3-methyl-phenyl)methyl]-2-(4-methoxyphenyl)-3-oxo-6,8-dihydro-5H-imidazo[1,5-a]pyrazine-1-carboxamide], the EC50 is reported as 500 to 5000 nM.
`C[C@@H](NC(=O)c1c2n(c(=O)n1C)CCN(C(=O)c1ccc(Br)c(Cl)c1)C2)c1ccccc1` (stereo in doubt) [Example 113, 7-(4-bromo-3-chloro-benzoyl)-2-methyl-3-oxo-N-[rac-(1R)-1-phenylethyl]-6,8-dihydro-5H-imidazo[1,5-a]pyrazine-1-carboxamide] gave an EC50 of 500 to 5000 nM.
`O=C(NCc1c(F)cccc1F)c1c2n(c(=O)n1-c1ccc(OC3CC3)cc1)CCN(C(=O)c1ccc(Br)c(Cl)c1)C2` [Example 306, 7-(4-bromo-3-chloro-benzoyl)-2-[4-(cyclopropoxy)phenyl]-N-[(2,6-difluorophenyl)methyl]-3-oxo-6,8-dihydro-5H-imidazo[1,5-a]pyrazine-1-carboxamide] gave an EC50 of 100 to 500 nM.
In the case of `C[C@@H]1CN(Cc2ccccc2)C(=O)c2c3n(c(=O)n2C1)CCN(C(=O)c1ccc(Br)c(Cl)c1)C3` (stereo in doubt) [Example 97, rac-(11R)-13-benzyl-4-(4-bromo-3-chloro-benzoyl)-11-methyl-4,7,9,13-tetrazatricyclo[7.5.0.0^2,7]tetradec-1-ene-8.14-dione], the EC50 is reported as 500 to 5000 nM.
`CC(C)Oc1ccc(-n2c(C(=O)NCc3ccc4[nH]cnc4c3)c3n(c2=O)CCN(C(=O)c2ccc(Br)c(Cl)c2)C3)cc1` [Example 219, N-(1H-benzimidazol-5-ylmethyl)-7-(4-bromo-3-chloro-benzoyl)-2-(4-isopropoxyphenyl)-3-oxo-6,8-dihdyro-5H-imidazo[1,5-a]pyrazine-1-carboxamide] was tested, and the EC50 was 500 to 5000 nM.
`COc1ccc(CNC(=O)c2c3n(c(=O)n2-c2ccc(OC(C)C)cc2)CCN(C(=O)c2ccc(Br)c(Cl)c2)C3)cc1` [Example 185, 7-(4-bromo-3-chloro-benzoyl)-2-(4-isopropoxyphenyl)-N-[(4-methoxyphenyl)methyl]-3-oxo-6,8-dihydro-5H-imidazo[1,5-a]pyrazine-1-carboxamide] showed an EC50 of 100 to 500 nM.
